Measurements from PubChem BioAssay AID1508612.

Assay: passive permeability, PAMPA, ADME assay (AID 1508612)
Details: pH 7.4, 30.0 min, 50.0 µM

Row | Papp | Compound
1 | > 10000 nm/s | CC(=O)Nc1nc(-c2ccc3c(c2)CCN3C(=O)c2ccccc2C)c(C)s1
2 | < 10 nm/s | CCc1ccc(NC(=O)c2[nH]c(C)c(C(C)=O)c2C)cc1S(=O)(=O)Nc1ccc(Br)cc1
3 | 9080 nm/s | Cc1c(-c2cccc(NC(=O)c3ccc(F)c(F)c3)c2)nc2ncccn12
4 | 462 nm/s | Cc1cc(NS(=O)(=O)c2ccc(C(=O)NCc3ccc(Cl)c(Cl)c3)cc2)no1
5 | 8990 nm/s | COc1cccc(OC)c1C(=O)Nc1ccccc1C(=O)Nc1cccc(C(F)(F)F)c1
6 | 123 nm/s | O=C(O)c1ccccc1-c1ccc(/C=c2\sc3nc4cc(Br)cnc4n3c2=O)o1
7 | 39.6 nm/s | O=C1Nc2ccccc2/C1=C\c1ccc(C(=O)O)cc1
8 | 1690 nm/s | CC[C@H](Nc1ncnc2nc[nH]c12)c1nc2cccc(F)c2c(=O)n1-c1ccccc1
9 | 168 nm/s | COc1ccc(Cn2c(=O)[nH]c3cc(C(=O)NCCCN4CCCCC4)ccc3c2=O)cc1
10 | 2020 nm/s | COc1cccc(-c2noc(Nc3ccc4c(c3)OCCO4)n2)c1
11 | > 10000 nm/s | Brc1ccc(-c2csc(N3CCNCC3)n2)cc1
12 | > 10000 nm/s | Cc1cccc(-n2cnc3cc(C(=O)N4CCCCCC4)ccc32)c1
13 | < 10 nm/s | CC[C@H](NC(=O)[C@H](C)NC)C(=O)N1C[C@@H](O)C[C@H]1Cc1c(-c2[nH]c3cc(F)ccc3c2C[C@H]2C[C@H](O)CN2C(=O)[C@H](CC)NC(=O)[C@H](C)NC)[nH]c2cc(F)ccc12
14 | 5050 nm/s | CNc1oc(-c2cccc(Cl)c2Cl)nc1C#N
15 | > 10000 nm/s | O=C(c1ccc2c(c1)ncn2-c1ccc(C(F)(F)F)cc1)N1CCCCC1
16 | 1160 nm/s | Cc1csc2c1c(=O)n(O)c(=O)n2Cc1ccccc1
17 | < 10 nm/s | O=c1[nH]cnc2nc[nH]c12
18 | 7930 nm/s | CCOc1ccccc1N1CC(c2nc3ccccc3n2CCOc2ccc(C(C)(C)C)cc2)CC1=O (configuration not stated)
19 | 9070 nm/s | C[C@H]1CN(C(=O)c2nn(C)c3ccccc23)C[C@@H]1c1nc(-c2ccncc2)no1
20 | 93.4 nm/s | O=C(CCc1ccccc1)Nc1ccc(S(=O)(=O)Nc2nccs2)cc1
21 | 380 nm/s | Cc1ccc(S(=O)(=O)Nc2cnccc2C(=O)Nc2nc(-c3cccc(Cl)c3)cs2)cc1
22 | > 10000 nm/s | Cc1cccc(S(=O)(=O)c2cn(Cc3ccccc3)c3cc(N4CCCC(C)C4)c(F)cc3c2=O)c1 (configuration not stated)
23 | > 10000 nm/s | Cc1nnc(-c2ccccc2C(C)C)nc1NCc1ccc(-c2cccnc2)cc1

Row | Papp | Compound
24 | 824 nm/s | CCOc1ccc(N2C(=O)c3n[nH]c(-c4cccs4)c3C2c2cccc(F)c2)cc1 (configuration not stated)
25 | 7520 nm/s | COc1ccc(CCNc2ncnc3onc(C)c23)c(OC)c1
26 | 7390 nm/s | CCOC(=O)c1ccc(N2C(=O)c3n[nH]c(-c4cccs4)c3C2c2ccc(OCC)cc2)cc1 (configuration not stated)
27 | < 10 nm/s | Cc1cc(F)ccc1-c1nc(NCCN=C(N)NC#N)nc2c1ccc(=O)n2-c1c(F)cccc1F
28 | 363 nm/s | CCC(=O)NC(c1cccs1)c1cc([N+](=O)[O-])c2cccnc2c1O (configuration not stated)
29 | > 10000 nm/s | COC(=O)c1ccc([C@H]2c3[nH]c4ccccc4c3C[C@H](C(=O)OC)N2C(=O)CCl)cc1
30 | 315 nm/s | COc1cccc(CNc2ccc(S(=O)(=O)Nc3ncccn3)cc2)c1O
31 | 107 nm/s | CCOC(=O)NNc1ccc(N(CC)CC(C)O)nn1 (configuration not stated)
32 | 55.5 nm/s | CCn1cc(CNC(=O)c2cc(-c3ccc(C)cc3)nc3ccc(Br)cc23)c(C)n1
33 | 3810 nm/s | Cc1nn2c(c1-c1ccccc1-c1ccccc1)N(Cc1ccccc1)CCC2
34 | < 10 nm/s | COc1ccc(NC(=O)c2c(C)c(C(C)=O)c(C)n2C)cc1S(=O)(=O)Nc1ccc(Br)cc1
35 | 9550 nm/s | CCCCC(C)/C=C(C)/C=C(\C)C(=O)NC1=CC(O)(/C=C/C=C/C=C/C(=O)NC2=C(O)CCC2=O)C2OC2C1=O (configuration not stated)
36 | 2570 nm/s | CNc1cc(-c2nc(Nc3ccc(F)c(F)c3)c3ccccc3n2)ccn1
37 | 697 nm/s | Cc1nc(N)nc2ccccc12
38 | > 10000 nm/s | COc1cc(-c2cc3c(nc2-c2ccccc2)nc(C(=O)NC2CCN(C)CC2)n3C)ccn1
39 | 7340 nm/s | CC1=C(C(=O)NC2CCCCC2)C(c2ccccc2Br)N=C(Nc2nc3ccccc3o2)N1 (configuration not stated)
40 | 223 nm/s | Cc1ccc(-c2cc(C(=O)Nc3cccc(S(=O)(=O)Nc4nccs4)c3)c3ccccc3n2)cc1C
41 | 719 nm/s | O=C(c1ccc2c(c1)OCO2)N1CCC(Cc2nc(-c3cnccn3)no2)CC1
42 | > 10000 nm/s | COc1ccc(OC)c(N2C(=O)C(Cl)=C(N3CCCCC3)C2=O)c1
43 | 2910 nm/s | Cc1ccc(Nc2nc(C)c(NC(=O)c3ccc(C)cc3)c(Nc3ccc(C)cc3)n2)cc1
44 | 15 nm/s | Cc1noc(C)c1-c1ccc2ncnc(N3CCC(C(=O)O)CC3)c2c1
45 | 168 nm/s | CN(C)C(=O)c1nc(-c2ccc(S(C)(=O)=O)cc2)c2cnccn12
46 | > 10000 nm/s | CN(C)C(=O)c1nc(-c2ccc(Cl)nc2)c2ccccn12

Row | Papp | Compound
47 | 8680 nm/s | Cc1ccnc(NC(=S)N2CCN(c3ccc(Cl)cc3Cl)CC2)c1
48 | < 10 nm/s | Cc1ccc(C(=O)Nc2nc3nc(C)cc(=O)n3[nH]2)cc1
49 | 2380 nm/s | O=C(NCc1cccnc1)c1nc(-c2ccc(Cl)nc2)c2cnccn12
50 | > 10000 nm/s | CC(C)(C)c1ccc(C(=O)N2CC(=O)Nc3ccc(F)cc3C2c2ccc(F)cc2)cc1 (configuration not stated)
51 | 10000 nm/s | Cc1ccc2oc(NC3=NC(c4[nH]ncc4Cl)C4=C(CCCC4=O)N3)nc2c1 (configuration not stated)
52 | 7750 nm/s | CCN1C(=O)c2ccccc2S(=O)c2ccc(C(=O)NCc3ccccc3)cc21 (configuration not stated)
53 | < 10 nm/s | CCOc1ccc(CN2C(=O)c3ccccc3Sc3ccc(C(=O)NC4CCC(C)CC4)cc32)cc1 (configuration not stated)
54 | 5160 nm/s | CSc1nn(Cc2cccc(C)c2)c(N)c1S(=O)(=O)c1ccccc1
55 | > 10000 nm/s | CCN(CC)CCCNC(=O)c1oc2c(c1C)-c1nn(Cc3ccc(Cl)cc3)cc1CC2
56 | 6150 nm/s | CCc1ccc(-n2nnc(-c3nsc(NC(=O)c4ccccc4Cl)n3)c2C)cc1
57 | < 10 nm/s | Cc1cn(CCN2CCN(c3ccccc3-c3cc(C#N)cc(C(=O)NCCCN4CCCC4)c3)CC2)c2ccccc12
58 | 63.5 nm/s | O=C(NCc1ccncc1)c1nc(-c2cccnc2)c2cnccn12
59 | > 10000 nm/s | COc1ccc(-n2nc(C)c([C@@H]3C=C[C@@H](NCc4ccc(F)cc4)C3)c2C)cc1
60 | 9360 nm/s | Cc1cc(C)c(C(=O)Nc2cccc([S+](=O)([O-])N3CCCCC3)c2)[nH]1
61 | 166 nm/s | CC(C)CC(C)NC(=O)c1noc(-c2ccc[nH]c2=O)n1 (configuration not stated)
62 | 3100 nm/s | O=C(Nc1ccc2oc(-c3cccnc3)nc2c1)c1ccc(-c2cccc(Cl)c2)o1
63 | 26 nm/s | NC(=O)c1ccc(-c2nc3c([nH]2)CN(C(=O)CN2CCOCC2)CC3)cc1
64 | > 10000 nm/s | COc1cc(/C=C2\C(=O)Nc3ccccc32)ccc1O
65 | 34 nm/s | NS(=O)(=O)c1ccc(Cc2c(-c3cccc(-c4ccccc4)c3)nn(-c3nc(C(=O)O)cs3)c2CC2CC2)cc1
66 | 2940 nm/s | O=C(Nc1nc(-c2ccccc2)cs1)c1ccncc1NS(=O)(=O)c1ccc(Cl)cc1
67 | 185 nm/s | C[C@]1(CO)CN(c2cc(C(=O)Nc3ccc4c(c3)-c3c(c(C(N)=O)nn3-c3ccc(F)cc3)CC4)c(Cl)cn2)C[C@@]1(C)CO
68 | < 10 nm/s | N[C@H]1CN(c2c(F)cc3c(=O)c(C(=O)O)cn(C4C[C@@H]4F)c3c2Cl)CC12CC2 (some centres not stated)
69 | 358 nm/s | COc1cccc(CNc2ccc(S(=O)(=O)Nc3nccs3)cc2)c1O

Row | Compound | Papp
70 | Cc1cccc(-n2nc(C)c3c2NC(=O)CSC3c2ccccc2Cl)c1 (configuration not stated) | > 10000 nm/s
71 | COc1ccc(C[C@@H]2C(=O)N[C@H](C)C(=O)N(C)[C@@H]3C(=O)N(C)[C@@H](Cc4ccc(O)c(c4)Oc4ccc(cc4)[C@H]3O)C(=O)N[C@@H](C)C(=O)N[C@H](C)C(=O)N2C)cc1 | 45 nm/s
72 | CCOC(=O)c1ccc(NC(=O)c2sc3nc4c(cc3c2N)N2CCC4CC2)cc1 | 9280 nm/s
